In ChEMBL document CHEMBL3046389, “Synthesis and biological evaluation of novel hydroquinone dimethyl ethers as potential anticancer and antimicrobial agents” (2013):
In brackets after ≈: the same amount, converted by molar mass.

Columns and labels:
Type in all cases: functional
Pseudomonas aeruginosa [1] = experiment: Antimicrobial activity against Pseudomonas aeruginosa ATCC 10145 after 48 hr by two-fold serial broth dilution method; settings: ATCC 10145, 48 h
Escherichia coli = experiment: Antimicrobial activity against Escherichia coli ATCC 11775 after 48 hr by two-fold serial broth dilution method; settings: ATCC 11775, 48 h
Staphylococcus aureus = experiment: Antimicrobial activity against Staphylococcus aureus DSM 1104 after 48 hr by two-fold serial broth dilution method; settings: DSM 1104, 48 h
Bacillus subtilis = experiment: Antimicrobial activity against Bacillus subtilis ATCC 6633 after 48 hr by two-fold serial broth dilution method; settings: ATCC 6633, 48 h
Candida albicans = experiment: Antimicrobial activity against Candida albicans DSM 70014 after 48 hr by two-fold serial broth dilution method; settings: DSM 70014, 48 h
Pseudomonas aeruginosa [2] = experiment: Ratio of ampicillin MIC to compound MIC for Pseudomonas aeruginosa ATCC 10145 after 48 hr by two-fold serial broth dilution method

| Structure (SMILES) | MBC (Pseudomonas aeruginosa [1]) | MIC (Pseudomonas aeruginosa [1]) | MBC (Escherichia coli) | MIC (Escherichia coli) | MBC (Staphylococcus aureus) | MIC (Staphylococcus aureus) | MBC (Bacillus subtilis) | MIC (Bacillus subtilis) | MFC (Candida albicans) | MIC (Candida albicans) | Ratio (Pseudomonas aeruginosa [2]) |
| --- | --- | --- | --- | --- | --- | --- | --- | --- | --- | --- | --- |
| COc1ccc(OC)c(/C=C/C(=O)N/N=C/c2ccc([N+](=O)[O-])cc2)c1 | 50 µg/mL (≈ 141 µM) | 50 µg/mL (≈ 141 µM) | 50 µg/mL (≈ 141 µM) | 50 µg/mL (≈ 141 µM) | 100 µg/mL (≈ 281 µM) | 100 µg/mL (≈ 281 µM) | 50 µg/mL (≈ 141 µM) | 50 µg/mL (≈ 141 µM) | 50 µg/mL (≈ 141 µM) | 50 µg/mL (≈ 141 µM) |  |
| COc1ccc(OC)c(/C=C/C2=NN(C(C)=O)C(c3ccccc3)O2)c1 (stereo not drawn) | 100 µg/mL (≈ 284 µM) | 100 µg/mL (≈ 284 µM) | 100 µg/mL (≈ 284 µM) | 100 µg/mL (≈ 284 µM) | 50 µg/mL (≈ 142 µM) | 25 µg/mL (≈ 70.9 µM) | 50 µg/mL (≈ 142 µM) | 50 µg/mL (≈ 142 µM) | 50 µg/mL (≈ 142 µM) | 50 µg/mL (≈ 142 µM) |  |
| COc1ccc(OC)c(/C=C/C2=NN(C(C)=O)C(c3ccc(Cl)cc3)O2)c1 (stereo not drawn) | 50 µg/mL (≈ 129 µM) | 25 µg/mL (≈ 64.6 µM) | 50 µg/mL (≈ 129 µM) | 25 µg/mL (≈ 64.6 µM) | 100 µg/mL (≈ 259 µM) | 100 µg/mL (≈ 259 µM) | 50 µg/mL (≈ 129 µM) | 50 µg/mL (≈ 129 µM) | 100 µg/mL (≈ 259 µM) | 50 µg/mL (≈ 129 µM) |  |
| COc1ccc(OC)c(/C=C/C2=NN(C(C)=O)C(c3ccc([N+](=O)[O-])cc3)O2)c1 (stereo not drawn) | 100 µg/mL (≈ 252 µM) | 50 µg/mL (≈ 126 µM) | 100 µg/mL (≈ 252 µM) | 50 µg/mL (≈ 126 µM) | 100 µg/mL (≈ 252 µM) | 100 µg/mL (≈ 252 µM) | 100 µg/mL (≈ 252 µM) | 50 µg/mL (≈ 126 µM) | 100 µg/mL (≈ 252 µM) | 100 µg/mL (≈ 252 µM) |  |
| COc1ccc(OC)c(/C=C/c2nnc(S)n2-c2ccccc2)c1 | 100 µg/mL (≈ 295 µM) | 100 µg/mL (≈ 295 µM) | 50 µg/mL (≈ 147 µM) | 25 µg/mL (≈ 73.7 µM) | 50 µg/mL (≈ 147 µM) | 50 µg/mL (≈ 147 µM) | 50 µg/mL (≈ 147 µM) | 50 µg/mL (≈ 147 µM) | 100 µg/mL (≈ 295 µM) | 100 µg/mL (≈ 295 µM) |  |
| CCSc1nnc(/C=C/c2cc(OC)ccc2OC)n1-c1ccccc1 | 100 µg/mL (≈ 272 µM) | 100 µg/mL (≈ 272 µM) | 100 µg/mL (≈ 272 µM) | 100 µg/mL (≈ 272 µM) | 100 µg/mL (≈ 272 µM) | 100 µg/mL (≈ 272 µM) | 100 µg/mL (≈ 272 µM) | 100 µg/mL (≈ 272 µM) | 50 µg/mL (≈ 136 µM) | 50 µg/mL (≈ 136 µM) |  |
| CCSc1nnc(/C=C/c2cc(OC)ccc2OC)n1-c1ccc(Cl)cc1 | 50 µg/mL (≈ 124 µM) | 50 µg/mL (≈ 124 µM) | 50 µg/mL (≈ 124 µM) | 50 µg/mL (≈ 124 µM) | 100 µg/mL (≈ 249 µM) | 100 µg/mL (≈ 249 µM) | 100 µg/mL (≈ 249 µM) | 50 µg/mL (≈ 124 µM) | 50 µg/mL (≈ 124 µM) | 50 µg/mL (≈ 124 µM) |  |
| COc1ccc(OC)c(/C=C/c2nnc(SC)n2-c2ccc(C)cc2)c1 | 25 µg/mL (≈ 68 µM) | 12.5 µg/mL (≈ 34 µM) | 50 µg/mL (≈ 136 µM) | 50 µg/mL (≈ 136 µM) | 50 µg/mL (≈ 136 µM) | 50 µg/mL (≈ 136 µM) | 50 µg/mL (≈ 136 µM) | 50 µg/mL (≈ 136 µM) | 50 µg/mL (≈ 136 µM) | 50 µg/mL (≈ 136 µM) | 4 |
| CCSc1nnc(/C=C/c2cc(OC)ccc2OC)n1-c1ccc(C)cc1 | 100 µg/mL (≈ 262 µM) | 100 µg/mL (≈ 262 µM) | 100 µg/mL (≈ 262 µM) | 100 µg/mL (≈ 262 µM) | 100 µg/mL (≈ 262 µM) | 100 µg/mL (≈ 262 µM) | 100 µg/mL (≈ 262 µM) | 50 µg/mL (≈ 131 µM) | 100 µg/mL (≈ 262 µM) | 100 µg/mL (≈ 262 µM) |  |
| COc1ccc(OC)c(/C=C/c2nnc(SCC(=O)c3cc(O)ccc3O)n2-c2ccccc2)c1 | 25 µg/mL (≈ 51.1 µM) | 12.5 µg/mL (≈ 25.5 µM) | 25 µg/mL (≈ 51.1 µM) | 12.5 µg/mL (≈ 25.5 µM) | 50 µg/mL (≈ 102 µM) | 25 µg/mL (≈ 51.1 µM) | 50 µg/mL (≈ 102 µM) | 25 µg/mL (≈ 51.1 µM) | 50 µg/mL (≈ 102 µM) | 50 µg/mL (≈ 102 µM) | 4 |
| COc1ccc(OC)c(/C=C/c2nnc(SCC(=O)c3cc(O)ccc3O)n2-c2ccc(Cl)cc2)c1 | 25 µg/mL (≈ 47.7 µM) | 12.5 µg/mL (≈ 23.9 µM) | 50 µg/mL (≈ 95.4 µM) | 25 µg/mL (≈ 47.7 µM) | 50 µg/mL (≈ 95.4 µM) | 50 µg/mL (≈ 95.4 µM) | 25 µg/mL (≈ 47.7 µM) | 12.5 µg/mL (≈ 23.9 µM) | 50 µg/mL (≈ 95.4 µM) | 25 µg/mL (≈ 47.7 µM) | 4 |
| COc1ccc(OC)c(/C=C/c2nnc(Nc3ccc(C)cc3)o2)c1 | 50 µg/mL (≈ 148 µM) | 50 µg/mL (≈ 148 µM) | 50 µg/mL (≈ 148 µM) | 50 µg/mL (≈ 148 µM) | 100 µg/mL (≈ 296 µM) | 100 µg/mL (≈ 296 µM) | 100 µg/mL (≈ 296 µM) | 100 µg/mL (≈ 296 µM) | 100 µg/mL (≈ 296 µM) | 100 µg/mL (≈ 296 µM) |  |
| COc1ccc(OC)c(/C=C/c2nnc(Nc3ccccc3)s2)c1 | 100 µg/mL (≈ 295 µM) | 100 µg/mL (≈ 295 µM) | 50 µg/mL (≈ 147 µM) | 50 µg/mL (≈ 147 µM) | 50 µg/mL (≈ 147 µM) | 50 µg/mL (≈ 147 µM) | 100 µg/mL (≈ 295 µM) | 100 µg/mL (≈ 295 µM) | 50 µg/mL (≈ 147 µM) | 50 µg/mL (≈ 147 µM) |  |
| COc1ccc(OC)c(/C=C/c2nnc(Nc3ccc(C)cc3)s2)c1 | 100 µg/mL (≈ 283 µM) | 100 µg/mL (≈ 283 µM) | 200 µg/mL (≈ 566 µM) | 100 µg/mL (≈ 283 µM) | 100 µg/mL (≈ 283 µM) | 100 µg/mL (≈ 283 µM) | 100 µg/mL (≈ 283 µM) | 100 µg/mL (≈ 283 µM) | 50 µg/mL (≈ 141 µM) | 50 µg/mL (≈ 141 µM) |  |
| CC1(C)S[C@@H]2[C@H](NC(=O)[C@H](N)c3ccccc3)C(=O)N2[C@H]1C(=O)O.O.O.O [AMPICILLIN TRIHYDRATE] |  | 50 µg/mL |  | 10 µg/mL |  | 5 µg/mL |  | 12.5 µg/mL |  |  |  |
| Clc1ccccc1C(c1ccccc1)(c1ccccc1)n1ccnc1 [CLOTRIMAZOLE] |  |  |  |  |  |  |  |  |  | 5 µg/mL (≈ 14.5 µM) |  |
